Measured values: the CheMixHub viscosity set
± gives the uncertainty stated by the source.

Experiment: xn = mol fraction of the nth substance listed

## CC#N + CCCCO
298.15 K, 101 kPa, x1 = 0.055
  viscosity: 2.123 ± 0.027 mPa·s
298.15 K, 101 kPa, x1 = 0.1178
  viscosity: 1.764 ± 0.022 mPa·s
298.15 K, 101 kPa, x1 = 0.1952
  viscosity: 1.449 ± 0.017 mPa·s
298.15 K, 101 kPa, x1 = 0.2302
  viscosity: 1.322 ± 0.016 mPa·s
298.15 K, 101 kPa, x1 = 0.3526
  viscosity: 1.016 ± 0.012 mPa·s
298.15 K, 101 kPa, x1 = 0.4775
  viscosity: 0.792 ± 0.009 mPa·s
298.15 K, 101 kPa, x1 = 0.5911
  viscosity: 0.615 ± 0.007 mPa·s
298.15 K, 101 kPa, x1 = 0.7026
  viscosity: 0.504 ± 0.006 mPa·s
298.15 K, 101 kPa, x1 = 0.7906
  viscosity: 0.433 ± 0.005 mPa·s
298.15 K, 101 kPa, x1 = 0.9094
  viscosity: 0.383 ± 0.004 mPa·s
298.15 K, 101.3 kPa, x1 = 0.1671
  viscosity: 1.475 ± 0.035 mPa·s
298.15 K, 101.3 kPa, x1 = 0.311
  viscosity: 1.029 ± 0.025 mPa·s
298.15 K, 101.3 kPa, x1 = 0.4362
  viscosity: 0.77 ± 0.02 mPa·s
298.15 K, 101.3 kPa, x1 = 0.5462
  viscosity: 0.605 ± 0.016 mPa·s
298.15 K, 101.3 kPa, x1 = 0.6436
  viscosity: 0.484 ± 0.014 mPa·s
298.15 K, 101.3 kPa, x1 = 0.7303
  viscosity: 0.441 ± 0.013 mPa·s
298.15 K, 101.3 kPa, x1 = 0.8082
  viscosity: 0.403 ± 0.012 mPa·s
298.15 K, 101.3 kPa, x1 = 0.8784
  viscosity: 0.387 ± 0.012 mPa·s
298.15 K, 101.3 kPa, x1 = 0.942
  viscosity: 0.348 ± 0.011 mPa·s
303.15 K, 101 kPa, x1 = 0.055
  viscosity: 1.695 ± 0.022 mPa·s
303.15 K, 101 kPa, x1 = 0.0999
  viscosity: 1.696 ± 0.012 mPa·s
303.15 K, 101 kPa, x1 = 0.1178
  viscosity: 1.422 ± 0.018 mPa·s
303.15 K, 101 kPa, x1 = 0.1952
  viscosity: 1.186 ± 0.014 mPa·s
303.15 K, 101 kPa, x1 = 0.2
  viscosity: 1.322 ± 0.01 mPa·s
303.15 K, 101 kPa, x1 = 0.2302
  viscosity: 1.086 ± 0.013 mPa·s
303.15 K, 101 kPa, x1 = 0.2997
  viscosity: 1.054 ± 0.008 mPa·s
303.15 K, 101 kPa, x1 = 0.3526
  viscosity: 0.854 ± 0.01 mPa·s
303.15 K, 101 kPa, x1 = 0.4
  viscosity: 0.842 ± 0.006 mPa·s
303.15 K, 101 kPa, x1 = 0.4775
  viscosity: 0.681 ± 0.008 mPa·s
303.15 K, 101 kPa, x1 = 0.5
  viscosity: 0.695 ± 0.005 mPa·s
303.15 K, 101 kPa, x1 = 0.5911
  viscosity: 0.538 ± 0.006 mPa·s
303.15 K, 101 kPa, x1 = 0.5998
  viscosity: 0.574 ± 0.005 mPa·s
303.15 K, 101 kPa, x1 = 0.6999
  viscosity: 0.482 ± 0.004 mPa·s
303.15 K, 101 kPa, x1 = 0.7026
  viscosity: 0.445 ± 0.005 mPa·s
303.15 K, 101 kPa, x1 = 0.7906
  viscosity: 0.391 ± 0.005 mPa·s
303.15 K, 101 kPa, x1 = 0.8
  viscosity: 0.413 ± 0.004 mPa·s
303.15 K, 101 kPa, x1 = 0.9
  viscosity: 0.362 ± 0.003 mPa·s
303.15 K, 101 kPa, x1 = 0.9094
  viscosity: 0.348 ± 0.004 mPa·s
303.15 K, 101.3 kPa, x1 = 0.1671
  viscosity: 1.336 ± 0.032 mPa·s
303.15 K, 101.3 kPa, x1 = 0.311
  viscosity: 0.937 ± 0.023 mPa·s
303.15 K, 101.3 kPa, x1 = 0.4362
  viscosity: 0.706 ± 0.018 mPa·s
303.15 K, 101.3 kPa, x1 = 0.5462
  viscosity: 0.566 ± 0.015 mPa·s
303.15 K, 101.3 kPa, x1 = 0.6436
  viscosity: 0.457 ± 0.013 mPa·s
303.15 K, 101.3 kPa, x1 = 0.7303
  viscosity: 0.408 ± 0.012 mPa·s
303.15 K, 101.3 kPa, x1 = 0.8082
  viscosity: 0.381 ± 0.011 mPa·s
303.15 K, 101.3 kPa, x1 = 0.8784
  viscosity: 0.367 ± 0.011 mPa·s
303.15 K, 101.3 kPa, x1 = 0.942
  viscosity: 0.327 ± 0.01 mPa·s
308.15 K, 101 kPa, x1 = 0.055
  viscosity: 1.365 ± 0.018 mPa·s
308.15 K, 101 kPa, x1 = 0.0999
  viscosity: 1.517 ± 0.011 mPa·s
308.15 K, 101 kPa, x1 = 0.1178
  viscosity: 1.159 ± 0.014 mPa·s
308.15 K, 101 kPa, x1 = 0.1952
  viscosity: 0.978 ± 0.012 mPa·s
308.15 K, 101 kPa, x1 = 0.2
  viscosity: 1.197 ± 0.009 mPa·s
308.15 K, 101 kPa, x1 = 0.2302
  viscosity: 0.899 ± 0.011 mPa·s
308.15 K, 101 kPa, x1 = 0.2997
  viscosity: 0.957 ± 0.007 mPa·s
308.15 K, 101 kPa, x1 = 0.3526
  viscosity: 0.721 ± 0.008 mPa·s
308.15 K, 101 kPa, x1 = 0.4
  viscosity: 0.781 ± 0.006 mPa·s
308.15 K, 101 kPa, x1 = 0.4775
  viscosity: 0.585 ± 0.007 mPa·s
308.15 K, 101 kPa, x1 = 0.5
  viscosity: 0.643 ± 0.005 mPa·s
308.15 K, 101 kPa, x1 = 0.5911
  viscosity: 0.472 ± 0.005 mPa·s
308.15 K, 101 kPa, x1 = 0.5998
  viscosity: 0.536 ± 0.004 mPa·s
308.15 K, 101 kPa, x1 = 0.6999
  viscosity: 0.453 ± 0.004 mPa·s
308.15 K, 101 kPa, x1 = 0.7026
  viscosity: 0.397 ± 0.005 mPa·s
308.15 K, 101 kPa, x1 = 0.7906
  viscosity: 0.352 ± 0.004 mPa·s
308.15 K, 101 kPa, x1 = 0.8
  viscosity: 0.391 ± 0.004 mPa·s
308.15 K, 101 kPa, x1 = 0.9
  viscosity: 0.345 ± 0.003 mPa·s
308.15 K, 101 kPa, x1 = 0.9094
  viscosity: 0.32 ± 0.004 mPa·s
308.15 K, 101.3 kPa, x1 = 0.1671
  viscosity: 1.204 ± 0.029 mPa·s
308.15 K, 101.3 kPa, x1 = 0.311
  viscosity: 0.849 ± 0.022 mPa·s
308.15 K, 101.3 kPa, x1 = 0.4362
  viscosity: 0.65 ± 0.017 mPa·s
308.15 K, 101.3 kPa, x1 = 0.5462
  viscosity: 0.535 ± 0.015 mPa·s
308.15 K, 101.3 kPa, x1 = 0.6436
  viscosity: 0.431 ± 0.012 mPa·s
308.15 K, 101.3 kPa, x1 = 0.7303
  viscosity: 0.391 ± 0.012 mPa·s
308.15 K, 101.3 kPa, x1 = 0.8082
  viscosity: 0.361 ± 0.011 mPa·s
313.15 K, 101 kPa, x1 = 0.0999
  viscosity: 1.364 ± 0.01 mPa·s
313.15 K, 101 kPa, x1 = 0.2
  viscosity: 1.085 ± 0.008 mPa·s
313.15 K, 101 kPa, x1 = 0.2997
  viscosity: 0.876 ± 0.006 mPa·s
313.15 K, 101 kPa, x1 = 0.4
  viscosity: 0.723 ± 0.005 mPa·s
313.15 K, 101 kPa, x1 = 0.5
  viscosity: 0.601 ± 0.005 mPa·s
313.15 K, 101 kPa, x1 = 0.5998
  viscosity: 0.502 ± 0.004 mPa·s
313.15 K, 101 kPa, x1 = 0.6999
  viscosity: 0.427 ± 0.004 mPa·s
313.15 K, 101 kPa, x1 = 0.8
  viscosity: 0.374 ± 0.003 mPa·s
313.15 K, 101 kPa, x1 = 0.9
  viscosity: 0.329 ± 0.003 mPa·s
318.15 K, 101 kPa, x1 = 0.0999
  viscosity: 1.231 ± 0.009 mPa·s
318.15 K, 101 kPa, x1 = 0.2
  viscosity: 0.986 ± 0.007 mPa·s
318.15 K, 101 kPa, x1 = 0.2997
  viscosity: 0.803 ± 0.006 mPa·s
318.15 K, 101 kPa, x1 = 0.4
  viscosity: 0.667 ± 0.005 mPa·s
318.15 K, 101 kPa, x1 = 0.5
  viscosity: 0.555 ± 0.004 mPa·s
318.15 K, 101 kPa, x1 = 0.5998
  viscosity: 0.47 ± 0.004 mPa·s
318.15 K, 101 kPa, x1 = 0.6999
  viscosity: 0.402 ± 0.004 mPa·s
318.15 K, 101 kPa, x1 = 0.8
  viscosity: 0.354 ± 0.003 mPa·s
318.15 K, 101 kPa, x1 = 0.9
  viscosity: 0.315 ± 0.003 mPa·s
323.15 K, 101 kPa, x1 = 0.0999
  viscosity: 1.111 ± 0.008 mPa·s
323.15 K, 101 kPa, x1 = 0.2
  viscosity: 0.9 ± 0.006 mPa·s
323.15 K, 101 kPa, x1 = 0.2997
  viscosity: 0.738 ± 0.005 mPa·s
323.15 K, 101 kPa, x1 = 0.4
  viscosity: 0.619 ± 0.005 mPa·s
323.15 K, 101 kPa, x1 = 0.5
  viscosity: 0.519 ± 0.004 mPa·s
323.15 K, 101 kPa, x1 = 0.5998
  viscosity: 0.442 ± 0.004 mPa·s
323.15 K, 101 kPa, x1 = 0.6999
  viscosity: 0.381 ± 0.003 mPa·s
323.15 K, 101 kPa, x1 = 0.8
  viscosity: 0.336 ± 0.003 mPa·s
323.15 K, 101 kPa, x1 = 0.9
  viscosity: 0.301 ± 0.003 mPa·s
